Experimental data published in ChEMBL document CHEMBL6153018, “Macrocycles and macrocyclization in anticancer drug discovery: Important pieces of the puzzle” (Eur J Med Chem, 2024).
≈ marks a conversion by molar mass, not a printed value. Square brackets hold non-standard residues; d marks the D form. Peptide text beside a SMILES is read from it. Lys(Me2) = CN(C)CCCC[C@H](N)C(=O)O; NMeT = CN[C@H](C(=O)O)[C@@H](C)O; NMeA = CN[C@@H](C)C(=O)O

Key:
in vitro [1] = conditions: human, Caco-2
physchem = conditions: PBS buffer, pH 7.4
in vitro [2] = conditions: dog, MDCK

SMILES: C[C@@H]1NC(=O)[C@H](CCCCN)NC(=O)[C@H](Cc2ccccc2)NC(=O)[C@H](Cc2ccc(O)cc2)NC(=O)[C@H](CO)NC1=O (cyclo(ASYFK))
- Papp A→B at 1 h (in vitro [1]): 0.83 ×10⁻⁶ cm/s

SMILES: CC(C)C[C@@H]1NC(=O)[C@H]([C@@H](C)O)N(C)C(=O)[C@H]2CCCN2C(=O)[C@H](CC(C)C)NC(=O)[C@H](C)N(C)C(=O)[C@H](CC(C)C)NC(=O)[C@H]([C@@H](C)O)N(C)C(=O)[C@H]2CCCN2C(=O)[C@H](CC(C)C)NC(=O)[C@H](C)N(C)C1=O (cyclo(L[NMeA]L[dP][NMeT]L[NMeA]L[dP][NMeT]))
- solubility (physchem): 880 µM (≈ 922 µg/mL)
- Papp A→B at 2 h (in vitro [2]): 0.593 ×10⁻⁶ cm/s

SMILES: COC[C@@H]1NC(=O)[C@H](CC(N)=O)NC(=O)[C@H](CCCCN(C)C)NC(=O)[C@H](Cc2ccccc2)NC(=O)[C@H](Cc2ccc(OC)cc2)NC1=O (cyclo([Lys(Me2)]NS(Me)Y(Me)F))
- Papp A→B at 1 h (in vitro [1]): 5.55 ×10⁻⁶ cm/s
